Columns and labels:
[1] = UV protection in vitro by spectrophotometer (SPF calculation); format: physicochemical; details: 20 μg/ml in ethanol; absorbance 290-320 nm
[2] = test system: type I Collagen in human skin fibroblasts (WS1); assay: Stimulation of collagen type I in skin fibroblasts (immunofluorescence); format: cell-based; details: positive control at 10 ng/mL
Experimental: The effect of the extract on collagen stimulation was evaluated using specific antibodies to type I Collagen. Once bound to collagen, the primary antibody is detected by a secondary antibody on which a fluorophore is grafted. Human skin fibroblasts (WS1, ATCC CRL-1502) were seeded in 96-well microplates in a full decomplemented culture medium and incubated overnight at 37° C. and 5% CO2 to allow their adherence. Thereafter, the cells were incubated for 24 hours in the absence or presence of increasing concentrations of Red maple bark extract (12.5, 25, 50 and 100 μg/mL). The culture medium containing the extract was then removed and the cells were fixed with 95% ethanol for 10 minutes. The cells were washed three times with PBS and permeabilized with 0.5% Triton solution in PBS for 15 minutes. […] The fluorescence emitted by the secondary antibody was then measured and pictures were taken with a fluorescence microscope Cytation3.
The effect of the extract on collagen stimulation was evaluated using specific antibodies to type I Collagen. Once bound to collagen, the primary antibody is detected by a secondary antibody on which a fluorophore is grafted. […] The fluorescence emitted by the secondary antibody was then measured and pictures were taken with a fluorescence microscope Cytation3.

Compound	SPF [1]	average increase of collagen (fluorescence) compared to untreated cells [2] [%]
CC1CC(OC(=O)c2ccccc2O)CC(C)(C)C1 (centres unmarked) [Homosalate]	3.9 ± 0.2	
TGF-β		56
